From patent US7888527B2 (University of Virginia Patent Foundation, priority 2004, dated 2011)
“Also recorded” adds a separate entry of the source.

Key:
Parameters in all cases: expressed in transfected cells; host or cells: HEK293T, transient transfection; membranes
[1] = biological target: T1, human S1P1 receptor (Homo sapiens, UniProt P21453); assay: [32P]S1P binding assay, HEK293T membranes; conditions: read-out: pKi S1P1 (converted)
Protocol: (§1) [^32P]-S1P was prepared by incubating sphingosine and [γ-^32P]ATP with cell lysate from HEK293T cells transiently transfected with human sphingosine kinase type 2 DNA. The 200 μl reaction contained 0.025 mM sphingosine, 1 mCi [γ-^32P]ATP (7000 Ci/mmol) and kinase buffer (in mM: Mg(C2H3O2)2 (in 50 mM Tris, pH 7.5)/10, NaF/10, and semicarbizide/2). The reaction was initiated by the addition of 20 μg of cell lysate and incubated at 37° C. for at least 30 minutes. […] The organic layer was isolated and the extraction procedure repeated two additional times with the remaining aqueous fraction. The combined organic fractions were dried under a stream of nitrogen gas and resuspended in aqueous 0.1% fatty acid free BSA.
(§2) Bound ligand was separated from free ligand by rapid filtration and analyzed in a liquid scintillation counter.
(§3) Statistical Analysis. The EC50 and IC50 values for all dose response curves were determined by nonlinear regression analysis of all data using the Graphpad Prism© program. The error associated with the data collected is reported as the standard error of the mean (S.E.M).

[2] = biological target: T2, human S1P3 receptor (Homo sapiens, UniProt Q99500); assay: [32P]S1P binding assay, HEK293T membranes; conditions: read-out: pKi S1P3 (converted)
Protocol: as §1, §2, §3

[3] = biological target: T1, human S1P1 receptor; assay: [γ-35S]GTP binding assay, HEK293T membranes (agonism and Schild antagonism); assay type: biochemical
Source text: (§4) The appropriate receptor plasmid DNA (encoding human S1P1, human S1P2, human S1P3, human S1P4, human S1P5, human LPA1, human LPA2 or human LPA3 receptors) is mixed with equal amounts of expression plasmids encoding human Gi2α (for S1P3, a mutated (C352F) rat Gi2α is used), cow β1, and cow γ2 proteins, and these DNAs are used to transfect monolayers of HEK293T cells (where ‘T’ indicates expression of the SV-40 virus large T antigen) using the calcium phosphate precipitate method (7). After about 60 hours, cells are harvested, membranes prepared, aliquoted, and stored at −70° C. until use (8).
(§5) The [γ-^35S]GTP binding assay is performed as described previously (8). Membranes containing 1-5 μg of protein are incubated in 0.1 ml of binding buffer (in mM: HEPES/50, NaCl/100, MgCl2/10, pH 7.5) containing 5 μg of saponin, 10 μM GDP, 0.1 nM [γ-^35S]GTP (1200 Ci/mmol), and indicated lipid(s) for 30 min at 30° C. and collected using a Brandel Cell Harvester (Gaithersburg, Md.). Samples are then analyzed for bound radionuclide.
(§6) Briefly, nonlinear analysis of the best-fit line generated by plotting the negative log of the EC50 values obtained from agonist dose-response curves, in the absence and presence of varying concentrations of antagonist, was plotted against the concentration of antagonist to give the Kb value.
as §3

[4] = biological target: T2, human S1P3 receptor; assay: as above; assay type: biochemical
Source text: as §4, §5, §6, §3

[5] = VPC23019 concentrations greater than 100 nM
[6] = [γ-35S]GTP binding, S1P with increasing VPC23019, Lew and Angus regression

T2 sequence (Q99500 whole entry): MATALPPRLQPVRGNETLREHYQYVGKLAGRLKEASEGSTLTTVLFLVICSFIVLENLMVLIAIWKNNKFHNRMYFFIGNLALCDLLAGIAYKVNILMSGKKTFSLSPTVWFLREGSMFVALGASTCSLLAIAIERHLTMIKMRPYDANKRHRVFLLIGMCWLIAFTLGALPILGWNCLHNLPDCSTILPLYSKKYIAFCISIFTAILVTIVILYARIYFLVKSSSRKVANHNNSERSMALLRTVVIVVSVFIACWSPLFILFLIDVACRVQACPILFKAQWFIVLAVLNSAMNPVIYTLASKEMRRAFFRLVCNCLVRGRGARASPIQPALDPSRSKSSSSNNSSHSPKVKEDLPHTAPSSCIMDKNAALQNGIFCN
T1 sequence (P21453 whole entry): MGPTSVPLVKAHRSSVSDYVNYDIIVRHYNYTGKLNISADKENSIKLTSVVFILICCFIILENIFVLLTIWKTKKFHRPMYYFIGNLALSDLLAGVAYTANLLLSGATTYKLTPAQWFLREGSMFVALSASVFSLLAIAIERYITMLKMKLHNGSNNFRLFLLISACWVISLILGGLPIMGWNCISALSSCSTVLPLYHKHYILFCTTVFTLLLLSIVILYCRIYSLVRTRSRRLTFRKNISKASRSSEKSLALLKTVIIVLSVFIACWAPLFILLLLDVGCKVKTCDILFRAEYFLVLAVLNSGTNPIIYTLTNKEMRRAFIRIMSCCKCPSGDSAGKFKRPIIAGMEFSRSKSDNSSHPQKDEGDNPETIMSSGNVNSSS

CCCCCCCCc1cccc(NC(=O)[C@H](N)COP(=O)(O)O)c1 [VPC23019]
Ki [1]: 13.8 nM | Ki [2]: 1170 nM | Agonist activity at the S1P1 receptor [3]: lacked agonist activity | pKb S1P1 ([3]; Schild analysis (Lew and Angus) of S1P curves in [γ-35S]GTP binding, ± S.E.M.): 7.49±0.16 | Inverse agonism profile at S1P1 [3, 5]: a profile suggesting inverse agonism | Antagonism of S1P at the S1P1 receptor [3, 6]: dose-dependent, parallel rightward shift; also recorded: competitive antagonist | Kb ([3]; read-out: pKb S1P1 (converted)): 32.4 nM | Agonist efficacy class S1P1 ([3]; relative to S1P Emax): na (no agonist activity (<10% of S1P Emax)) | Agonist activity at the S1P3 receptor [4]: lacked agonist activity | Inverse agonism profile at S1P3 [4, 5]: a profile suggesting inverse agonism | Antagonism of S1P at the S1P3 receptor [4, 6]: dose-dependent, parallel rightward shift; also recorded: competitive antagonist | Kb ([4]; read-out: pKb S1P3 (converted)): 1050 nM | Agonist efficacy class S1P3 ([4]; relative to S1P Emax): na (no agonist activity (<10% of S1P Emax))
